# Test results published in publication PMC10819771 (Pharmaceuticals, 2023).
# Columns and labels:
# HeLa = assay: MTT antiproliferative assay, HeLa; type: cell-based, human; details: for IC50: Homo sapiens, HeLa, MTT, 72 h, cervical cancer cells, read-out: IC50 Values (μM) ± SEM HeLa; for Selectivity Index HEK293/HeLa: IC50 HEK293 / IC50 HeLa
# Experimental: (§1) The growth-inhibitory effects of the compounds were determined by MTT (3-(4,5-dimethylthiazol-2-yl)-2,5-diphenyltetrazolium bromide) assay on selected cell lines, including HeLa and SiHa (cervical cancers), MDA-MB-231 and MCF-7 (breast cancers), and A2780 ovarian cancer cells. All cell lines were purchased from the European Collection of Cell Cultures (Salisbury, UK) except SiHa, which was obtained from the American Tissue Culture Collection (Manassas, VA, USA). The cells were kept in minimum essential medium supplemented with 10% fetal bovine serum, 1% non-essential amino acids, and 1% penicillin-streptomycin-amphotericin-B at 37 °C in a humidified atmosphere containing 5% CO2. Media and supplements were obtained from Lonza Group Ltd., (Basel, Switzerland). Cancer cells were seeded onto 96-well plates (5000 cells/well), after an overnight incubation the test compounds were added in six concentrations (0.1, 0.3, 1.0, 3.0, 10.0, 30.0 µM) and incubated for 72 h under cell-culture condition. After the incubation, 20 μL of 5 mg/mL MTT solution was added to each well and incubated for a further 4 h. The medium was removed, and the precipitated formazan crystals were dissolved in DMSO for 30 min under shaking at 37 °C. The absorbance was measured at 545 nm with a microplate reader. Untreated cells were included as controls. Calculations were performed by means of the GraphPad Prism 5.01 software (GraphPad Software Inc., San Diego, CA, USA). At least two independent determinations were performed with 5 parallel wells for each condition.
# SiHa = assay: MTT antiproliferative assay, SiHa; type: cell-based, human; details: for IC50: Homo sapiens, SiHa, MTT, 72 h, cervical cancer cells, read-out: IC50 Values (μM) ± SEM SiHa; for Selectivity Index HEK293/SiHa: IC50 HEK293 / IC50 SiHa
# Experimental: as §1
# MCF-7 = assay: MTT antiproliferative assay, MCF-7; type: cell-based, human; details: for IC50: Homo sapiens, MCF7, 72 h, MTT, 72 h, breast cancer cells, read-out: IC50 Values (μM) ± SEM MCF-7; for Selectivity Index HEK293/MCF-7: IC50 HEK293 / IC50 MCF-7
# Experimental: as §1
# MDA-MB-231 = assay: MTT antiproliferative assay, MDA-MB-231; type: cell-based, human; details: for IC50: Homo sapiens, MDA-MB-231, 72 h, MTT, 72 h, breast cancer cells, read-out: IC50 Values (μM) ± SEM MDA-MB-231; for Selectivity Index HEK293/MDA-MB-231: IC50 HEK293 / IC50 MDA-MB-231
# Experimental: as §1
# A2780 = assay: MTT antiproliferative assay, A2780; type: cell-based, human; details: for IC50: Homo sapiens, A2780, MTT, 72 h, ovarian cancer cells, read-out: IC50 Values (μM) ± SEM A2780; for Selectivity Index HEK293/A2780: IC50 HEK293 / IC50 A2780
# Experimental: as §1
# K562 = assay: MTS cell proliferation assay, K562; type: cell-based, human; details: for IC50: Homo sapiens, K562, 72 h, MTS, 3-day incubation, leukemia cells, read-out: IC50 Values (μM) ± SEM K562; for Selectivity Index HEK293/K562: IC50 HEK293 / IC50 K562
# Experimental: The human leukemic cell line K562 was grown in RPMI 1640 medium (Life Technology-Invitrogen by Thermo Fisher Scientific, Saint-Aubin, France) supplemented with 10% fetal calf serum (FCS), antibiotics (100 U/mL penicillin, 100 µg/mL streptomycin), and L-glutamine, (Eurobio, Les Ulis, France) at 37 °C, 5% CO2 in air. The MTS cell proliferation assay (Promega, Charbonnières-les-Bains, France) is a colorimetric assay system, which measures the transformation of a tetrazolium component (MTS) into formazan produced by the mitochondria of viable cells. Cells were washed twice in PBS (Phosphate Buffer Saline) and plated in quadruplicate into microtiter-plate wells in 100 μL culture media with or without our various compounds at increasing concentrations (0, 1, 5, 10, 20, and 50 μM) for 1, 2, and 3 days. After 3 h of incubation at 37 °C with 20 μL MTS/well, the plates were read using an ELISA microplate reader (Thermo, Electrocorporation, Waltham, MA, USA) at 490 nm. The amount of color produced was directly proportional to the number of viable cells. The results are expressed as the concentrations inhibiting cell growth by 50% after a 3-day incubation period. The 50% cytotoxic concentrations (CC50) were determined by linear regression analysis, expressed in μM ± SD (Microsoft Excel).
# HEK293 = assay: MTT proliferation test on normal cells, HEK293; type: cell-based; details: Homo sapiens, normal epithelial cells, cytotoxicity, read-out: IC50 Values (μM) ± SEM HEK293
# Experimental: The MTT proliferation test on the epithelial cell line HEK293 was performed as pre-viously described. The 50% inhibiting concentrations (IC50) were determined by linear regression analysis.
# Fc-MYCT = assay: FRET-melting, Fc-MYCT; type: binding; details: DNA 0.2 μM, K+ conditions, pH 7.2
# Experimental: (§2) FRET-melting experiments were conducted on a Stratagene MX3005P (Thermo Fisher Scientific, Illkirch-Graffenstaden, France) real-time PCR equipment in 96-well plates on the DNA sequences reported in Table 4. Experiments were performed in 10 mM lithium cacodylate buffer (pH 7.2) and either 10 mM KCl and 90 mM LiCl (FK-RAST, FBCL-2T, F21T, and FdxT) or 1 mM KCl and 99 mM LiCl (Fc-MYCT) concentrations, depending on the Tm of the G4s alone. The DNA concentration was 0.2 µM. […] Data are presented as an average of three independent measurements, each conducted in duplicate conditions (λexc = 492 nm, λem = 516 nm, T interval = 25–95 °C, ramp: 25 °C for 5 min, then 1 °C/min, measurements every 1 °C, 8× magnification of the fluorescence signal).
# FK-RAST = assay: FRET-melting, FK-RAST; type: binding; details: DNA 0.2 μM, 10 mM KCl, 90 mM LiCl, pH 7.2
# Experimental: as §2
# FBCL-2T = assay: FRET-melting, FBCL-2T; type: binding; details: DNA 0.2 μM, 10 mM KCl, 90 mM LiCl, pH 7.2
# Experimental: as §2
# [1] = tested on: human telomeric sequence F21T; assay: FRET-melting, F21T; type: binding; details: DNA 0.2 μM, 10 mM KCl, 90 mM LiCl, pH 7.2
# Experimental: as §2
# FdxT = assay: FRET-melting, duplex control FdxT; type: binding; details: DNA 0.2 μM, 10 mM KCl, 90 mM LiCl, pH 7.2, hairpin duplex
# Experimental: as §2
# telomerase = assay: Telomerase activity (TRAP assay) in MCF-7 cell lysates; type: biochemical, human; details: MCF-7 cell lysate
# Experimental: Telomerase activity was assessed using the TRAP assay kit (TRAPeze® RT telomerase detection kit, Chemicon, Millipore Sigma S7700, Merck KGaA, Darmstadt, Germany) according to manufacturer’s instructions with some modifications. Briefly, […] in CHAPS lysis buffer and proteins were extracted. Protein extracts and various concentrations of compounds (0 to 5 µM) were used to extend a synthetic telomeric DNA using an enzymatic reaction (30 °C during 20 min), followed by a quantification of telomeric DNA using a telomeric PCR amplification: 95 °C for 3 min, 2 cycles of 95 °C for 20 s, and 49 °C for 20 s, followed by 30 cycles 95 °C for 20 s and 60 °C for 20 s with signal acquisition) in a Stratagene Mx3005P system (Agilent, Les Ulis, France) using specific telomeric PCR quantitative primers. Each sample was measured in technical duplicate with control DNA. For each drug and each dilution, we used biological triplicate of cell lysates.
# [2] = tested on: F21T (DNA, G4) GGGTTAGGGTTAGGGTTAGGG; assay: FRET melting; details: 10 mM K+, 90 mM Li+; 10 mM lithium cacodylate pH 7.2; 0.2 µM DNA, 0.5 µM compound
# [3] = tested on: FdxT (DNA, hairpin, hexaethylene glycol linker between 10 and 11) TATAGCTATATATAGCTATA; assay: FRET melting; details: 10 mM K+, 90 mM Li+; 10 mM lithium cacodylate pH 7.2; 0.2 µM DNA, 0.5 µM compound
Structure (SMILES),IC50 (HeLa) [µM],Selectivity Index HEK293/HeLa (HeLa),IC50 (SiHa) [µM],Selectivity Index HEK293/SiHa (SiHa),IC50 (MCF-7) [µM],Selectivity Index HEK293/MCF-7 (MCF-7),IC50 (MDA-MB-231) [µM],Selectivity Index HEK293/MDA-MB-231 (MDA-MB-231),IC50 (A2780) [µM],Selectivity Index HEK293/A2780 (A2780),IC50 (K562) [µM],Selectivity Index HEK293/K562 (K562),IC50 (HEK293) [µM],ΔT1/2 (°C) Fc-MYCT (Fc-MYCT; ligand 2 μM) [°C],ΔT1/2 (°C) FK-RAST (FK-RAST; ligand 2 μM) [°C],ΔT1/2 (°C) FBCL-2T (FBCL-2T; ligand 2 μM) [°C],ΔT1/2 (°C) F21T ([1]; ligand 2 μM) [°C],ΔT1/2 (°C) FdxT (FdxT; ligand 2 μM) [°C],also measured
CN1CCN(CCCNCc2ccc(-c3nc(-c4ccc(CNCCCN5CCN(C)CC5)cc4)c4ccc(-c5ccccc5)cc4n3)cc2)CC1 [Compound 12i],1.15 ± 0.36,>26.1,0.92 ± 0.24,>32.6,0.67 ± 0.31,>44.8,0.52 ± 0.02,>57.7,1.14 ± 0.16,>26.3,23 ± 0.5,>1.30,> 30,12.5 ± 0.7,20.2 ± 0.5,14.8 ± 0.7,18.6 ± 0.2,1.9 ± 0.1,telomerase activity compared to control (telomerase; 5 µM compound): reduced drastically; concentration from which MCF-7 telomerase activity is decreased (telomerase; 0 to 5 µM tested): 5 µM
"CN1CCN(CCCCNCc2ccc(-c3nc(-c4ccc(CNCCCCN5CCN(C)CC5)cc4)c4ccc(-c5ccccc5)cc4n3)cc2)CC1 [Compound 12j, 2,4-bis{4-[(4-(4-methylpiperazin-1-yl)butyl)aminomethyl]phenyl}-7-phenylquinazoline]",1.48 ± 0.8,3.31,0.33 ± 0.08,14.85,0.58 ± 0.25,8.45,1.1 ± 0.15,4.45,1.44 ± 0.1,3.40,8 ± 0.2,0.61,4.9 ± 0.15,14.1 ± 0.3,18.7 ± 1.6,9.8 ± 1.0,14.5 ± 1.2,1.5 ± 0.4,
"C[n+]1cc(NC(=O)c2ccc3ccc4ccc(C(=O)Nc5cc6ccccc6[n+](C)c5)nc4c3n2)cc2ccccc21 [PhenDC3, reference compound]",,,,,,,,,,,,,,,,,,,ΔT1/2 (°C) Fc-MYCT (Fc-MYCT; ligand 0.5 μM): 11.5 ± 0.3 °C; ΔT1/2 (°C) FK-RAST (FK-RAST; ligand 0.5 μM): 16.9 ± 0.4 °C; ΔT1/2 (°C) FBCL-2T (FBCL-2T; ligand 0.5 μM): 13.1 ± 0.1 °C; ΔT1/2 (°C) F21T ([1]; ligand 0.5 μM): 21.2 ± 0.5 °C; ΔT1/2 (°C) FdxT (FdxT; ligand 0.5 μM): −0.6 ± 0.1 °C; ΔT1/2 [2]: 21.2 ± 0.5 °C; ΔT1/2 [3]: -0.6 ± 0.1 °C
